Data as given in patent US12612386B2, “Heteroaryl-triazole compounds as pesticides” (Bayer Aktiengesellschaft, priority 2020, dated 2026).

What was measured:
Type in all cases: in vivo
[1] = system: larvae of the banded cucumber beetle (Diabrotica balteata); test: Diabrotica balteata spray test; conditions: 168 h, 100 g/ha (=32 μg/well), after 7 days, read-out: efficacy (seedling growth)
Summary of the method: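 Germinated wheat seeds on agar (5 per well) were sprayed with compound formulated in acetone/DMF and diluted in water with 1000 ppm emulsifier. Each unit was then infested with 10–20 larvae. Efficacy % was scored after 7 days as seedling growth relative to an untreated, uninfested control (100% = normal growth).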

[2] = system: adult mosquitoes Aedes aegypti strain MONHEIM; test: Aedes aegypti test (AEDSAE surface treatment & contact assay); conditions: 24 hours after contact, read-out: efficacy (mortality); for mortality at 4 mg/m2: surface concentration 4 mg/m^2, 30 min exposure; for mortality at 20 mg/m2: surface concentration 20 mg/m^2, 30 min exposure
Procedure: Aedes aegypti Test (AEDSAE Surface Treatment & Contact Assay)
(§1) Solvent: Aceton+2000 ppm rapeseed oil methyl ester (RME)
This solution is pipetted onto a glazed tile and after evaporation of the acetone, adult mosquitoes of the species Aedes aegypti strain MONHEIM are placed onto the dried surface. The exposure time is 30 minutes. Mortality in percent (%) is determined 24 hours after contact of the insects to the treated surface. 100% mortality means that all tested insects are dead, whereas 0% means that no insect died.

[3] = system: adult mosquitoes Culex quinquefasciatus strain P00; test: Culex quinquefasciatus test (CULXFA surface treatment & contact assay); conditions: 24 hours after contact, read-out: efficacy (mortality); for mortality at 20 mg/m2: surface concentration 20 mg/m^2, 30 min exposure
Procedure: Culex quinquefasciatus Test (CULXFA Surface Treatment & Contact Assay)
as §1
This solution is pipetted onto a glazed tile and after evaporation of the acetone, adult mosquitoes of the species Culex quinquefasciatus strain P00 are placed onto the dried surface. The exposure time is 30 minutes. Mortality in percent (%) is determined 24 hours after contact of the insects to the treated surface. 100% mortality means that all tested insects are dead, whereas 0% means that no insect died.

[4] = system: green peach aphid (Myzus persicae); test: Myzus persicae spray test (MYZUPE); conditions: 120 h; for mortality at 100 g/ha: after 5 days
Summary of the method: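 Chinese cabbage leaf disks infested with all instars of Myzus persicae were sprayed with compound formulated in acetone/dimethylformamide and diluted in water with 1000 ppm alkylarylpolyglycol ether emulsifier. Percent mortality was scored after 5 days, 100% meaning all aphids killed.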

[5] = system: fall armyworm larvae (Spodoptera frugiperda); test: whole plant or invertebrate; conditions: 168 h
Summary of the method: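 Maize leaf sections sprayed with compound in acetone/DMF with alkylarylpolyglycol ether emulsifier diluted in water, then infested with fall armyworm larvae once dry. Mortality (%) scored after 7 days; 100% = all caterpillars killed.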

[6] = system: adult flies Musca domestica strain WHO-N; test: Musca domestica test (MUSCDO surface treatment & contact assay); conditions: 24 hours after contact, read-out: efficacy (mortality); for mortality at 20 mg/m2: surface concentration 20 mg/m^2, 30 min exposure; for mortality at 4 mg/m2: surface concentration 4 mg/m^2, 30 min exposure
Procedure: Musca domestica Test (MUSCDO Surface Treatment & Contact Assay)
as §1
This solution is pipetted onto a glazed tile and after evaporation of the acetone, adult flies of the species Musca domestica strain WHO-N are placed onto the dried surface. The exposure time is 30 minutes. Mortality in percent (%) is determined 24 hours after contact of the insects to the treated surface. 100% mortality means that all tested insects are dead, whereas 0% means that no insect died.

[7] = system: cattle tick larvae (Rhipicephalus microplus), strain Parkhurst, resistant against synthetic pyrethroids; test: Rhipicephalus (Boophilus) microplus in-vitro contact test, larval cattle tick; conditions: 5 μg/cm^2 (=500 g/ha), after 48 hours
Summary of the method: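 After drying, 20-50 larvae were held per tube at 27° C., 85% relative humidity for 48 h, and efficacy was scored as % dead or moribund.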

[8] = system: adult brown dog ticks (Rhipicephalus sanguineus); test: Rhipicephalus sanguineus in-vitro contact test, adult brown dog ticks; conditions: 48 h, read-out: efficacy (ticks dead or moribund)
Procedure: Rhipicephalus sanguineus—In-Vitro Contact Tests with Adult Brown Dog Ticks
(§2) 9 mg compound is solved in 1 mL acetone and diluted with acetone to the desired concentration. 250 μL of the test solution is filled in 25 mL glass test tubes and homogeneously distributed on the inner walls by rotation and tilting on a shaking device (2 h at 30 rpm). With a compound concentration of 900 ppm, an inner surface of 44.7 cm^2 and a homogeneous distribution, a dose of 5 μg/cm^2 is achieved.
After the solvent has evaporated, each test tube is filled with 5-10 adult brown dog ticks (Rhipicephalus sanguineus), closed with a perforated lid and incubated in a lying position at room temperature and relative humidity. After 48 hours efficacy is determined. The ticks are patted on the ground of the tubes and are incubated on a heating plate at 45-50° C. for at most 5 minutes. Immotile or uncoordinated moving ticks, which are not able to escape the heat by climbing upwards, are marked as dead or moribund.
An efficacy of 100% means all ticks are dead or moribund; 0% means no ticks are dead or moribund.

[9] = system: brown planthopper (Nilaparvata lugens); test: Nilaparvata lugens spray test; conditions: 96 h
Summary of the method: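 Rice plants (Oryza sativa) sprayed with compound formulated in acetone/DMF with alkylarylpolyglycol ether emulsifier (1000 ppm in diluting water), then infested with planthoppers. Mortality (%) scored after 4 days; 100% = all insects killed, 0% = none killed.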

[10] = system: adult cat fleas (Ctenocephalides felis); test: Ctenocephalides felis in-vitro contact test, adult cat flea; conditions: 5 μg/cm^2 (=500 g/ha), after 48 hours
Procedure: Ctenocephalides felis—In-Vitro Contact Tests Adult Cat Flea
as §2
After the solvent has evaporated, each test tube is filled with 5-10 adult cat fleas (Ctenocephalides felis), closed with a perforated lid and incubated in a lying position at room temperature and relative humidity. After 48 hours efficacy is determined. The fleas are patted on the ground of the tubes and are incubated on a heating plate at 45-50° C. for at most 5 minutes. Immotile or uncoordinated moving fleas, which are not able to escape the heat by climbing upwards, are marked as dead or moribund.
An efficacy of 100% means all fleas are dead or moribund; 0% means no fleas are dead or moribund.

[11] = system: larvae of the southern green stink bug (Nezara viridula); test: whole plant or invertebrate; conditions: 96 h
Summary of the method: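 Compound in acetone/DMF was diluted in water with 1000 ppm alkylarylpolyglycol ether emulsifier. Barley plants were sprayed with it, then infested with Nezara viridula larvae. Mortality % was scored after 4 days (100% = all killed).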

Row | SMILES | pest or weed control at 32 µg/disc, 100 g/ha [1] | mortality at 4 mg/m2 [2] | mortality at 20 mg/m2 [2] | mortality at 20 mg/m2 [3] | mortality at 100 g/ha [4] | mortality at 100 g/ha [5] | mortality at 20 mg/m2 [6] | efficacy (larvae dead or moribund) [7] | pest or weed control at 5 µg/cm2, 500 g/ha [8] | mortality at 4 mg/m2 [6] | mortality at 500 g/ha [9] | efficacy (fleas dead or moribund) [10] | mortality at 100 g/ha [11] | mortality at 500 g/ha [11] | Emax at 4 g/ha ([4]; MYZUPE, 4 g ai/ha, 5 dat (Table 4), read-out: % Efficacy) | Emax at 20 g/ha ([4]; MYZUPE, 20 g ai/ha, 5 dat (Table 4), read-out: % Efficacy) | Emax at 100 g/ha ([4]; MYZUPE, 100 g ai/ha, 5 dat (Table 4), read-out: % Efficacy) | Emax at 20 g/ha ([5]; SPODFR, 20 g ai/ha, 7 dat (Table 4), read-out: % Efficacy) | Emax at 100 g/ha ([5]; SPODFR, 100 g ai/ha, 7 dat (Table 4), read-out: % Efficacy) | mortality at 4 mg/m2 ([3]; surface concentration 4 mg/m^2, 30 min exposure)
1 | C[C@H](NC(=O)c1cc(OC(F)(F)F)cc(S(=O)(=O)C(F)F)c1)c1ncnn1-c1cc(C#N)ncn1 [I-20] | 100% | 80 to 100% | 80 to 100% | 80 to 100% | 100% | 100% | 80 to 100% | – | – | – | – | – | – | – | – | – | – | – | – | –
2 | C[C@H](NC(=O)c1cc(OC(F)(F)F)cc(OC(F)(F)F)c1)c1nc(C2CC2)nn1-c1cc(C(N)=O)ncn1 [I-36] | 100% | – | 80 to 100% | – | – | 100% | 80 to 100% | 100% | 80% | 80 to 100% | – | – | – | – | – | – | – | – | – | –
3 | CC(NC(=O)c1cc(OC(F)(F)F)cc(C2CC2)c1)c1ncnn1-c1cc(C#N)ncn1 (stereo not drawn) [I-8, N-{1-[1-(6-cyanopyrimidin-4-yl)-1H-1,2,4-triazol-5-yl]ethyl}-3-cyclopropyl-5-(trifluoromethoxy)benzamide] | 100% | 80 to 100% | 80 to 100% | – | 90% | 100% | 80 to 100% | 100% | – | – | 100% | – | – | – | – | – | – | – | – | –
4 | Cc1nc([C@H](C)NC(=O)c2cc(C(F)(F)F)cc(C(F)(F)F)c2)n(-c2cc(C#N)ncn2)n1 [I-5] | 100% | – | 80 to 100% | – | 90% | 100% | – | 100% | 100% | – | – | 90% | – | – | – | – | – | – | – | –
5 | C[C@H](NC(=O)c1cc(C#N)cc(OC(F)(F)F)c1)c1nc(C2CC2)nn1-c1cc(C(N)=O)ncn1 [I-39] | 100% | – | – | – | – | 100% | 80 to 100% | – | – | 80 to 100% | 100% | – | – | – | – | – | – | – | – | –
6 | C[C@H](NC(=O)c1cc(Br)cc(Br)c1)c1ncnn1-c1cc(C(N)=O)ncn1 [I-34, 6-[5-[(1S)-1-[(3,5-dibromobenzoyl)amino]ethyl]-1,2,4-triazol-1-yl]pyrimidine-4-carboxamide] | 100% | 80 to 100% | 80 to 100% | – | 90% | 100% | – | 100% | 100% | – | – | 100% | 100% | 100% | – | – | – | – | – | –
7 | CNC(=O)c1cc(-n2ncnc2[C@H](C)NC(=O)c2cc(Cl)cc(S(=O)(=O)C(F)(F)F)c2)ncn1 [I-86] | 100% | 80 to 100% | 80 to 100% | – | 100% | 100% | 80 to 100% | – | – | – | – | – | – | 100% | 100% | 100% | 100% | 100% | 100% | –
8 | C[C@H](NC(=O)c1cc(Br)cc(OC(F)F)c1)c1ncnn1-c1cc(C#N)ncn1 [I-3] | 100% | – | 80 to 100% | – | 90% | 100% | – | 100% | 100% | – | – | 100% | 90% | 90% | – | – | – | – | – | –
9 | C[C@H](NC(=O)c1cc(OC(F)(F)F)cc(C2(C#N)CC2)c1)c1nc(C2CC2)nn1-c1cc(C(N)=O)ncn1 [I-33] | 100% | 80 to 100% | 80 to 100% | 80 to 100% | – | 100% | 80 to 100% | 100% | – | 80 to 100% | 100% | 100% | – | – | – | – | – | – | – | 80 to 100%
10 | CNC(=O)c1cc(-n2ncnc2[C@H](C)NC(=O)c2cc(OC(F)F)cc(C3CC3)c2)ncn1 [I-67] | 100% | – | – | – | 90% | 100% | – | 100% | 100% | – | 100% | 100% | – | 100% | – | – | – | – | – | –
11 | C[C@H](NC(=O)c1cc(OC(F)(F)F)cc(C2CC2)c1)c1ncnn1-c1cc(C#N)ncn1 [I-10] | 100% | 80 to 100% | 80 to 100% | – | – | 100% | 80 to 100% | 100% | – | – | – | – | – | – | – | – | – | – | – | –
